Measured values: ChEMBL document CHEMBL1159056, “Antitumor agents. 271: total synthesis and evaluation of brazilein and analogs as anti-inflammatory and cytotoxic agents” (Bioorg Med Chem Lett, 2010)
≈ marks a conversion by molar mass, not a printed value.

Columns and labels:
[1] = Antiinflammatory activity in human neutrophils assessed as inhibition of fMLP/cytochalasin B-induced elastase release; assay type: functional, cell-based; settings: Neutrophil
[2] = Antiinflammatory activity in human neutrophils assessed as inhibition of fMLP/cytochalasin B-induced superoxide anion generation at 10 ug/mL; assay type: functional; settings: Neutrophil
[3] = Antiinflammatory activity in human neutrophils assessed as inhibition of fMLP/cytochalasin B-induced superoxide anion generation; assay type: functional, cell-based; settings: Neutrophil
[4] = system: KB; assay: Cytotoxicity against human KB cells; assay type: functional, cell-based
[5] = Cytotoxicity against human KBVIN cells; assay type: functional, cell-based
[6] = system: DU-145; assay: Cytotoxicity against human DU145 cells; assay type: functional, cell-based
[7] = system: A549; assay: Cytotoxicity against human A549 cells; assay type: functional, cell-based
[8] = Antiinflammatory activity in human neutrophils assessed as inhibition of fMLP/cytochalasin B-induced elastase release at 10 ug/mL; assay type: functional; settings: Neutrophil
[9] = system: HepG2; assay: Cytotoxicity against human HepG2 cells; assay type: functional, cell-based
[10] = Cytotoxicity against human Hep3B cells; assay type: functional, cell-based, Hep 3B2
[11] = system: Ca9-22; assay: Cytotoxicity against human Ca9-22 cells; assay type: functional, cell-based
[12] = system: MCF7; assay: Cytotoxicity against human MCF7 cells; assay type: functional, cell-based
[13] = system: MDA-MB-231; assay: Cytotoxicity against human MDA-MB-231 cells; assay type: functional, cell-based

Row | IC50 [1] | IC50 [3] | SMILES | IC50 [4] | IC50 [5] | IC50 [6] | IC50 [7] | other results
1 | 13.6 µM | 4.65 µM | COC1=CC2=C3c4ccc(OC)cc4OCC3(OC)CC2=CC1=O (stereo not given) | 15.2 µM | 16.9 µM | 17.5 µM | > 20 µM | –
2 | 3.28 µM | 1.65 µM | CCC(=O)OC1=CC2=C3c4ccc(OC(=O)CC)cc4OCC3(O)CC2=CC1=O (stereo not given) | 7.7 µM | – | 7.1 µM | 7.8 µM | –
3 | 15.5 µM | – | CCN(CC)C(=O)OC1=CC2=C3c4ccc(OC(=O)N(CC)CC)cc4OCC3(O)CC2=CC1=O (stereo not given) | – | – | – | – | inhibition at 10 µg/mL [2]: -7%
4 | 8.37 µM | 4.35 µM | CCOC1=CC2=C3c4ccc(OCC)cc4OCC3(O)CC2=CC1=O (stereo not given) | 11.3 µM | 16.5 µM | 11 µM | 15.3 µM | –
5 | 10.1 µM | 19.7 µM | CC(C)=CCOC1=CC2=C3c4ccc(OCC=C(C)C)cc4OCC3(O)CC2=CC1=O (stereo not given) | – | – | – | – | –
6 | – | 23.9 µM | CCOC1=CC2=C3c4ccc(OCC)cc4OCC3(OCC)CC2=CC1=O (stereo not given) | 18.9 µM | 17.9 µM | 18.1 µM | > 20 µM | inhibition at 10 µg/mL [8]: 35.5%
7 | 16.5 µM | 19.7 µM | C=CCOC1=CC2=C3c4ccc(OCC=C)cc4OCC3(O)CC2=CC1=O (stereo not given) | 5.4 µM | – | 9.1 µM | 9.4 µM | –
8 | – | 18.7 µM | CC(=O)OC1=CC2=C3c4ccc(OC(C)=O)cc4OCC3(O)CC2=CC1=O (stereo not given) | 10 µM | – | 8.2 µM | 8.1 µM | inhibition at 10 µg/mL [8]: 40.9%
9 | 1.9 µM | 1.2 µM | CCC(=O)OC1=CC2=C3c4ccc(OC(=O)CC)cc4OCC3(OC(=O)CC)CC2=CC1=O (stereo not given) | 6.6 µM | 11.3 µM | 11 µM | 13.5 µM | –

Continued, compound first:

Row | SMILES | IC50 [1] | IC50 [3] | IC50 [4] | IC50 [5] | IC50 [6] | IC50 [7] | other results
10 | O=C1C=C2CC3(OC(=O)c4ccccc4)COc4cc(OC(=O)c5ccccc5)ccc4C3=C2C=C1OC(=O)c1ccccc1 (stereo not given) | 13.2 µM | – | – | – | – | – | inhibition at 10 µg/mL [2]: 14.1%
11 | COc1ccc2c(c1)OCC1(O)Cc3cc(OC)c(OC)cc3C21 (stereo not given) | – | 4.52 µM | 10.5 µM | 7.6 µM | 13.8 µM | > 20 µM | inhibition at 10 µg/mL [8]: 35.8%
12 | COc1ccc2c(c1)OC/C(=C\c1ccc(OC)c(OC)c1)C2=O | – | – | > 20 µM | 18.3 µM | > 20 µM | > 20 µM | –
13 | COc1ccc2c(c1)OCC1(OC1c1ccc(OC)c(OC)c1)C2=O (stereo not given) | – | 1.9 µM | 9.8 µM | 6.4 µM | 10.6 µM | > 20 µM | inhibition at 10 µg/mL [8]: 43.7%
14 | O=C1C=C2CC3(O)COc4cc(OCc5ccccc5)ccc4C3=C2C=C1OCc1ccccc1 (stereo not given) | 8.76 µM | – | – | – | – | – | inhibition at 10 µg/mL [2]: 33.4%
15 | COC1=CC2=C3c4ccc(OC)cc4OCC3(O)CC2=CC1=O (stereo not given) | – | – | – | – | – | – | inhibition at 10 µg/mL [2]: 18.6%; inhibition at 10 µg/mL [8]: 26.8%
16 | CN(C)C(=O)OC1=CC2=C3c4ccc(OC(=O)N(C)C)cc4OCC3(O)CC2=CC1=O (stereo not given) | – | – | – | – | – | – | inhibition at 10 µg/mL [2]: 16.4%; inhibition at 10 µg/mL [8]: 11.4%
17 | C=CCOC1=CC2=C3c4ccc(OCC=C)cc4OCC3(OCC=C)CC2=CC1=O (stereo not given) | 11.8 µM | 16.2 µM | – | – | – | – | –
18 | COc1ccc2c(c1)OCC(O)(Cc1ccc(OC)c(OC)c1)C2O (stereo not given) | 10.2 µM | 8.38 µM | > 20 µM | > 20 µM | > 20 µM | > 20 µM | –
19 | O=C1C=C2CC3(O)COc4cc(O)ccc4C3=C2C=C1O (stereo not given) [BRAZILEIN] | 14.2 µM | 4 µM | – | – | – | 9.68 µg/mL | IC50 [9]: 3.15 µg/mL (≈ 11.1 µM); IC50 [10]: 3.42 µg/mL (≈ 12 µM); IC50 [11]: 8.63 µg/mL (≈ 30.4 µM); IC50 [12]: 3.96 µg/mL (≈ 13.9 µM); IC50 [13]: 2.36 µg/mL (≈ 8.3 µM)
20 | Oc1ccc2c(c1)OC[C@]1(O)Cc3cc(O)c(O)cc3[C@H]21 [BRAZILIN] | 16.7 µM | 4.6 µM | – | – | – | 15.6 µg/mL | IC50 [9]: 3.47 µg/mL (≈ 12.1 µM); IC50 [10]: 4.54 µg/mL (≈ 15.9 µM); IC50 [11]: 9.78 µg/mL (≈ 34.2 µM); IC50 [12]: 6.29 µg/mL (≈ 22 µM); IC50 [13]: 3.09 µg/mL (≈ 10.8 µM)
21 | c1ccc2c(c1)[I+]c1ccccc1-2 [DIPHENYLENEIODONIUM] | – | 0.7 µM | – | – | – | – | –
22 | COc1cccc2c1C(=O)c1c(O)c3c(c(O)c1C2=O)C[C@@](O)(C(=O)CO)C[C@@H]3O[C@H]1C[C@H](N)[C@H](O)[C@H](C)O1 [DOXORUBICIN] | – | – | – | – | – | 0.32 µg/mL | IC50 [9]: 0.34 µg/mL (≈ 0.626 µM); IC50 [10]: 0.56 µg/mL (≈ 1.03 µM); IC50 [12]: 0.42 µg/mL (≈ 0.773 µM); IC50 [13]: 1.05 µg/mL (≈ 1.93 µM)
23 | CC(=O)O[C@H]1C(=O)[C@@]2(C)[C@H]([C@H](OC(=O)c3ccccc3)[C@]3(O)C[C@H](OC(=O)[C@H](O)[C@@H](NC(=O)c4ccccc4)c4ccccc4)C(C)=C1C3(C)C)[C@]1(OC(C)=O)CO[C@@H]1C[C@@H]2O [PACLITAXEL] | – | – | 0.00155 µM | 0.00109 µM | – | 0.00193 µM | –
